Assays:
[1] = Cytotoxicity by neutral red dye uptake in 2.2.15 cells; type: cell-based; details: human, 2.2.15 cells (confluent cultures, HBV-replicating)
2.2.15 cells = experiment: Cytotoxicity by neutral red dye uptake in 2.2.15 cells; type: cell-based; details: read-out: Cytotoxicity IC50; 2.2.15 cells, neutral red dye uptake
wild type HBV = experiment: HBV antiviral assay in 2.2.15 cells, HBV DNA by quantitative blot hybridization; type: cell-based; details: read-out: Anti-HCV activity EC50(µM) virion, extracellular virion HBV DNA, nine consecutive daily doses
HBV mutant rtM204I = experiment: Intracellular HBV DNA replication assay, transient transfection, rtM204I; type: cell-based; details: Hepatitis B virus, 96 h
HBV WT = experiment: Intracellular HBV DNA replication assay, transient transfection, WT; type: cell-based; details: Hepatitis B virus, 96 h
HBV mutant rtL180M = experiment: Intracellular HBV DNA replication assay, transient transfection, rtL180M; type: cell-based; details: Hepatitis B virus, 96 h
HBV mutant rtM204V = experiment: Intracellular HBV DNA replication assay, transient transfection, rtM204V; type: cell-based; details: Hepatitis B virus, 96 h
HCV RNA replicon = HCV RNA replicon assay in Huh7 ET cells; type: cell-based; details: in comparison to the parent compound 2

Nc1ccn([C@@H]2CS[C@H](CO)O2)c(=O)n1 [Compound 3TC, lamivudine, reference compound]
IC50 at 9 days [1]: > 2000 µM

Nc1ncnc2c1c(I)cn2[C@@H]1C=C(CO)[C@@H](O)[C@H]1O [Compound 15, (-)-(1R, 2S, 3R)-4-Amino-5-iodo-7-[2,3-dihydroxy-4-hydroxymethyl-4-cyclopenten-1-yl] -7H-pyrrolo[2,3-d] pyrimidine]
IC50 at 9 days [1]: > 300 µM

4-amino-7-(2,3-dihydroxy-4-hydroxymethyl-4-cyclopenten-1-yl)-7H-pyrrolo[2,3-d]pyrimidine [Compound 2]
IC50 (Huh7 ET cells): > 100 µM
IC50 (2.2.15 cells): 22 µM
EC50 (wild type HBV): 0.6 µM

C=Cc1cn([C@@H]2C=C(CO)[C@@H](O)[C@H]2O)c2ncnc(N)c12 [Compound 22, (-)-(1R, 2S, 3R)-4-Amino-5-ethenyl-7-[2,3-dihydroxy-4-hydroxymethyl-4-cyclopenten-1-yl]-7H-pyrrolo[2,3-d]pyrimidine]
IC50 at 9 days [1]: > 300 µM

C#Cc1cn([C@@H]2C=C(CO)[C@@H](O)[C@H]2O)c2ncnc(N)c12 [Compound 24, (-)-(1R, 2S, 3R)-4-Amino-5-ethynyl-7-[2,3-dihydroxy-4-hydroxymethyl-4-cyclopenten-1-yl]-7H-pyrrolo[2,3-d]pyrimidine]
EC50 (HBV mutant rtM204I): 3 µM
EC50 (HBV WT): 2.5 µM
EC50 (HBV mutant rtL180M): 2 µM
EC50 (HBV mutant rtM204V): 2.1 µM
IC50 at 9 days [1]: > 300 µM

Nc1ncnc2c1c(F)cn2[C@@H]1C=C(CO)[C@@H](O)[C@H]1O [Compound 12, (-)-(1R, 2S, 3R)-4-Amino-5-fluoro-7-[2,3-dihydroxy-4-hydroxymethyl-4-cyclopenten-1-yl]-7H-pyrrolo[2,3-d]pyrimidine]
anti-HCV activity (in words) (HCV RNA replicon): devoid of anti-HCV activity
